Results published in US8148556B2, “Method of producing tibolone metabolites by fermentation with Rhizopus stolonifer” (priority 2007, dated 2012).
“Also recorded” adds a separate entry of the source.

How the values were obtained:
[1] = test system: α-Glucosidase (E.C.3.2.1.20); experiment: α-Glucosidase enzyme inhibition assay; type: biochemical; settings: for Active (activity against alpha-glucosidase enzyme): Table 1; for IC50: pH 6.9, 37° C., 0.7 mM PNP-G substrate, NA = inactive compounds
Description: α-Glucosidase Enzyme Inhibition Assay
α-Glucosidase (E.C.3.2.1.20) enzyme inhibition assay has been performed according to the slightly modified method of Matsui et al. α-Glucosidase (E.C.3.2.1.20) from Saccharomyces sp. was purchased from Wako Pure Chemical Industries Ltd. (Wako 076-02841). The inhibition has been measured spectrophotometrically at pH 6.9 and at 37° C. using 0.7 mM p-nitrophenyl α-D glucopyranoside (PNP-G) as a substrate and 250 m units/mL enzyme in 50 mM sodium phosphate buffer containing 100 mM NaCl. […] The increment in absorption at 400 nm due to the hydrolysis of PNP-G by α-glucosidase was monitored continuously with the spectrophotometer (Molecular Devices, USA). The concentrations of the test compounds, which inhibited the hydrolysis of PNP-G by α-glucosidase by 50% (IC50), were determined by monitoring the effect of increasing the concentration of these compounds on the inhibition values. The IC50 values were then calculated using EZ-Fit enzyme kinetics program (Perrella Scientific Inc., Amherst, Mass., U.S.A.).

enzyme tyrosinas = molecular target: T1, enzyme tyrosinas (Homo sapiens, UniProt P14679); experiment: inhibitory activity against enzyme tyrosinas; type: biochemical
T1 sequence (P14679 19-529): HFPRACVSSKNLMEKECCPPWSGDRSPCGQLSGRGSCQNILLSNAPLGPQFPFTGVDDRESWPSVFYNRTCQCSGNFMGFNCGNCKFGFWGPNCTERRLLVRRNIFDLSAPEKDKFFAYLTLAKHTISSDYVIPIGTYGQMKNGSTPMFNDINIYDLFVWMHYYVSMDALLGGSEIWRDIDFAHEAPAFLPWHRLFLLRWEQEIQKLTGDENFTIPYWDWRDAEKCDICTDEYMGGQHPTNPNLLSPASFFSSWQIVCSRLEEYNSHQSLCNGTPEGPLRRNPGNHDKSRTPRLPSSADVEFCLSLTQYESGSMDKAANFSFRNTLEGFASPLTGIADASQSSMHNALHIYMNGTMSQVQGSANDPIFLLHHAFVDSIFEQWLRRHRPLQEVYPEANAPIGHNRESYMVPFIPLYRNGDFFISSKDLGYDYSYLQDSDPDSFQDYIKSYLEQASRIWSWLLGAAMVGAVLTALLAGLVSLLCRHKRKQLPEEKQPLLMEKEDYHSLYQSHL

| Structure (SMILES) | Active (activity against alpha-glucosidase enzyme) [1] | inhibitory activity against α-Glucosidase enzyme (in words) [1] | IC50 [1] [µM] | inhibitory activity against enzyme tyrosinas (in words) (enzyme tyrosinas) | melting point [°C] |
| --- | --- | --- | --- | --- | --- |
| C#C[C@]1(O)CC[C@H]2[C@@H]3[C@H](C)CC4=C(CCC(=O)C4)[C@H]3CC[C@@]21C [Compound 1, Tibolone] | No | – | – | – | – |
| C#C[C@]1(O)CC[C@H]2[C@@H]3[C@H](C)CC4=C(CC[C@H](O)C4)[C@H]3CC[C@@]21C [Compound 2, 3β-hydroxytibolone] | No | – | – | – | – |
| C#C[C@]1(O)CC[C@H]2[C@@H]3[C@H](C)CC4=C(CC[C@@H](O)C4)[C@H]3CC[C@@]21C [Compound 3, 3α-hydroxytibolone] | No | – | – | – | – |
| C#CC1(O)CCC2C3C(C)CC4=CC(=O)C=CC4C3CCC21C (stereo not drawn) [Compound 7, 7α-methyl-17α-ethynl-17β-hydroxy-19-norandrost-1,4-dien-3-one] | Yes | significant activity | 227 ± 0.02 | – | – |
| C#CC1(O)CCC2C3C(C)CC4=CC(=O)CCC4(O)C3CCC21C (stereo not drawn) [Compound 8, 7α-methyl-17α-ethynl-10β,17β-dihydroxy-19-norandrost-4-en-3-one] | No | pronounced inhibitory activities | 877 ± 0.03 | – | – |
| C#CC1(O)CC(O)C2C3C(C)CC4=C(CCC(=O)C4)C3C(O)CC21C (stereo not drawn) [Compound 9, 7α-methyl-17α-ethynl-11α,15β,17β-trihydroxy-19-norandrost-5(10)-en-3-one] | No | – | – | pronounced inhibitory activity | – |
| C#CC1(O)CC(O)C2C3C(C)C=C4CC(=O)CCC4C3C(O)CC21C (stereo not drawn) [Compound 10, 7α-methyl-17α-ethynl-11α,15β,17β-trihydroxy-19-norandrost-5-en-3-one] | No | – | – | pronounced inhibitory activity | – |
| C#CC1(O)CCC2C3C(C)C=C4CC(=O)CCC4C3CCC21C (stereo not drawn) [Compound 11, 7α-methyl-17α-ethynl-17β-hydroxy-19-norandrost-5-en-3-one] | No | – | – | – | – |
| C#CC1(O)CCC2C3C(C)C(O)C4=CC(=O)CCC4C3CCC21C (stereo not drawn) [Compound 12, 6β-Hydroxy-Δ^4-tibolone] | Yes | pronounced inhibitory activities; also recorded: pronounced inhibitory activity | 653 ± 0.02 | – | 189 to 193 |
| C#CC1(O)CCC2C3C(C)C(O)C4=CC(=O)CCC4C3CCC21C (stereo not drawn) [Compound 13, 6α-Hydroxy-Δ^4-tibolone] | Yes | pronounced inhibitory activities; also recorded: pronounced inhibitory activity | < 70 | – | 187 to 190 |
| C#CC1(O)CC(O)C2C3C(C)CC4=CC(=O)CCC4C3CCC21C (stereo not drawn) [Compound 14, 15α-Hydroxy-Δ^4-tibolone] | Yes | – | < 70 | – | – |
| C#CC1(O)CCC2C3C(C)C(O)C4=CC(=O)C=CC4C3CCC21C (stereo not drawn) [Compound 15, 7α-methyl-17α-ethynl-6α,17β-dihydroxy-19-norandrost-1,4-dien-3-one] | Yes | significant activity; also recorded: pronounced inhibitory activity | 340 ± 0.02 | – | – |
| C#C[C@]1(O)CC[C@H]2[C@@H]3[C@H](C)[C@@H](OC)C4=CC(=O)CC[C@@H]4[C@H]3CC[C@@]21C [Compound 16, 7α-methyl-17α-ethynl-6β-methoxy-17β-hydroxy-19-norandrost-4-en-3-one] | No | – | – | – | – |
